{
  "source": "patent US20220016067A1",
  "about": "“NOVEL ANTI-INFLAMMATORY COMPOUND, PRODUCING METHOD AND USE THEREOF” (priority 2020, published 2022)",
  "type_in_all_cases": "cell-based",
  "key": {"iNOS": {"tested_on": "iNOS", "assay": "LPS-induced iNOS expression in RAW264.7 macrophage cells (Western blot)", "conditions": "LPS 200 ng/ml, PL6 50-400 μM, 24 hours", "protocol": "The effect of Pineapplin PL6 on the LPS-induced iNOS expression is tested in RAW264.7 macrophage cells. The iNOS/β-actin ratio is the relative expression level of iNOS and β-actin protein. The higher the expression level of iNOS, the more inflammation response occurred (as an inflammation index). RAW264.7 macrophage cells were pretreated with LPS (200 ng/ml) for 24 hours, then incubated with various concentrations (50, 100, 200 and 400 μM) of PL6 at 5% CO2 and 37° C. for 24 hours. The (−) control group is treated with LPS-free medium, and the (+) control group is treated with PL6-free LPS medium. The cell culture supernatant of each group is collected, then the protein concentration is calculated, and 30 μg of total protein is taken from each group for protein gel electrophoresis. […] The luminescence fluorescence digital analysis system (ImageQuant LAS 400 mini, GE Healthcare Life Sciences) is used for luminescence color development.\nThe data shown in FIG. 7 is the relative expression of iNOS protein to β-actin, which is calculated by a software, based on the values obtained from the luminescence color film using scanning optical density method and standardized to β-actin protein."}, "RAW264.7 cells": {"tested_on": "RAW264.7 cells", "assay": "Cytotoxicity test (Alamar blue) in RAW264.7 cells", "conditions": "25, 50, 100, 200, 400 and 800 μM, 24 hours", "protocol": "RAW264.7 cells are cultured in RPMI medium containing 10% fetal bovine serum, 0.2% sodium bicarbonate and 1% penicillin/streptomycin, and in a 5% CO2, 37° C. incubator. The cells are subcultured when a confluency of 70-80% is reached. RAW264.7 cells are inoculated in a 96-well plate at a density of 4×10^4 cells/well per well. After the cells are adhered for overnight incubation, Pineapplin PL6 at different concentrations (25, 50, 100, 200, 400 and 800 μM) or pineapple extract (3, 6, 12 mg/ml) is added to each well. The blank control group is treated with culture medium without the Pineapplin PL6 or pineapple extract After 24 hours of incubation, Alamar blue is used to test cytotoxicity of the Pineapplin PL6. The medium is removed, washed twice with PBS, and diluted 10 times with Alamar Blue reagent in the medium without FBS. After reaction in dark for 6 hours, the change in absorbance at a wavelength of 570 nm is measured by using an ELISA reader."}, "[1]": {"tested_on": "nitric oxide production induced by LPS in RAW264.7 macrophages", "assay": "LPS-induced NO production in RAW264.7 macrophages (Griess reagent)", "conditions": "200 μM and 400 μM, LPS 200 ng/ml, RAW264.7, 24 hours", "protocol": "RAW264.7 cells are inoculated in a 96-well plate at a density of 4×10^5 cells/well. After the cells are adhered overnight, 200 ng/ml LPS is added, the blank control group has no LPS added, and incubated at 5% CO2 and 37° C. for 24 hours. On the second day, different concentrations (50, 100, 200 and 400 μM) of Pineapplin PL6 are added to the wells. The blank control group is treated with LPS-free medium, and the blank control group is treated with PL6-free LPS medium. The cells are then cultured under the condition of 5% CO2 and 37° C. After 24 hours of incubation, 150 μl of medium for each group is collected.\nA solution of 1% p-aminobenzene sulfonic acid dissolved in 5% phosphoric acid is prepared, and then mixed with 0.1% N-(1-naphthyl)ethylenediamine dihydrochloride at a ratio of 1:1 to form the Griess reagent. Solutions of sodium nitrite at concentrations of 1.5625 μM to 100 μM are prepared for making a standard curve. 150 μl of the collected medium is mixed with 50 μl of the Griess reagent, and reacted in a dark environment for 30 minutes. The change in absorbance at a wavelength of 555 nm is measured using an ELISA reader."}, "NFκB": {"tested_on": "NFκB", "assay": "LPS-induced NFκB expression (p-p65/p65) in RAW264.7 macrophage cells (Western blot)", "conditions": "LPS 200 ng/ml, PL6 50-400 μM, 24 hours", "protocol": "In this example, effect of Pineapplin PL6 on the LPS-induced NFκB expression is further tested in the RAW264.7 macrophage cell line. The value of p-p65/p65 is the relative expression level of NFκB protein. The higher the expression level of NFκB, the more inflammation response occurred (as an inflammation index). RAW264.7 macrophage cells were pretreated with LPS (200 ng/ml) for 24 hours, then incubated with various concentrations (50, 100, 200 and 400 μM) of PL6 for 24 hours at a condition of 5% CO2 and 37° C. The (−) control group is treated with LPS-free medium, and the (+) control group is treated with PL6-free LPS medium. The cell culture supernatant of each group is collected, then the protein concentration is calculated, and 30 μg of total protein is taken from each group for protein gel electrophoresis. […] After washing with PBST, the developing agent (Western Chemiluminescent HRP Substrate) is added, and the luminescence fluorescence digital analysis system (ImageQuant LAS 400 mini, GE Healthcare Life Sciences) is used for luminescence color development.\nThe data shown in FIG. 8 is the relative expression of NFκB protein p-p65/p65, which is calculated by a software, based on the values obtained from the luminescence color film using scanning optical density method and standardized to β-actin protein."}},
  "data": [
    {"substance": "1,2,3-tricarboxylic acid-propyl-3-hydroxyphenol acrylate [Pineapplin PL6]", "values": [
      {"measurement": "iNOS protein expression (iNOS/β-actin)", "setting": "iNOS", "result": "inhibiting iNOS protein expression"},
      {"measurement": "cytotoxicity to RAW264.7 cells", "setting": "RAW264.7 cells", "result": "no obvious cytotoxicity"},
      {"measurement": "production of nitric oxide induced by LPS", "setting": "[1]", "result": "significantly reduces"},
      {"measurement": "NFκB protein expression (p-p65/p65)", "setting": "NFκB", "result": "inhibiting NFκB protein expression"}
    ]}
  ]
}
